Columns and labels:
[1] = test system: TNF-α; assay: Intracellular TNF-α estimation in LPS activated murine neutrophils (flow cytometry); type: cell-based; settings: 5 μg/ml, LPS 1 μg/ml, 3 h, ↑ upregulation
Method: (§1) Flowcytometric studies were carried out to determine the anti-inflammatory effect of active constituents of Withania somnifera extract on TNF-α and IL-1β cytokine expression in LPS activated murine neutrophils.
(§2) TNF-α and Interleukin 1 beta (IL-1β) cytokines play a major role in the pathogenesis of septic shock induced by LPS (Lipopolysaccharide) endotoxin injection. LPS is an important triggering factor for in vivo systemic inflammatory response. LPS activates neutrophils via engagement of TLR4 (Toll-like receptor 4), resulting in the induction of a characteristic proinflammatory phenotype and prolongation of cell lifespan. In brief, neutrophils extraction was performed by taking murine blood and centrifuging it at 250 g for 20 min. Middle layer was taken and layered with histopaque and incubated for 10 min. The samples were centrifuged at 700 g, the upper layer was taken and Facs Lysing solution added for the lysis of any traces of RBC. The samples were washed with PBS (200 g) for 10 min. Neutrophils were stimulated with. LPS (1 μg/ml) and incubated with test samples for 3 h, in CO2 incubator. […] A fluorescence trigger was set on the […] parameter of the gated neutrophil populations (10,000 events). Fluorescence compensation, data analysis, and data presentation was performed using Cell Quest Pro software (Beckton—Dickinson Biosciences, CA, USA). […]

[2] = test system: E. Coli (Gram-negative); assay: Bacterial translocation from the gut into organs: E. coli; type: in vivo; settings: Withanone 2 mg/kg; positive/6 mice
Method: (§3) Peritoneal inflammation was induced by Zymosan A (Sigma Chemical) (Masashi et al. Zymosan, but Not Lipopolysaccharide, Triggers Severe and Progressive Peritoneal Injury Accompanied by complement Activation in a Rat Peritonitis Model) was prepared freshly in sterile, 0.9% w/v saline, and 0.5 ml was injected i.p. from day 0 to Day 5. The lymphocyte population in the peripheral blood was determined with a flow cytometer. Cells were phenotyped by flow cytometry with the following primary antibodies: CD4 (FITC) and CD8 (PE). Cells were gated broadly on all live lymphocyte cells, with only debris and multiple cell clusters being excluded. Analysis of mean fluorescence intensity was done and percentage cell population was evaluated. The test drugs were administered for 30 days after the induction of peritonitis. On 36th day the peritoneal cavity was lavaged with 1.5 ml saline, and after a 30-s gentle manual massage, 0.5 ml exudate was retrieved, centrifuged at 3000 g for 3 min, and frozen at 220° C. prior to cytokine and chemotactic-factor assessment.
(§4) Intestine serves as a barrier in preventing gut bacteria and/or endotoxin from spreading to organs and tissues. It is also known that bacterial translocation occurs in critically ill or immunocompromised patients, and the physical disruption of mucosal barrier in vivo rodent models seem to be a key factor Tor translocation (Deitch et al. Effect of hemorrhagic shock on bacterial translocation, intestinal morphology, and intestinal permeability in conventional and antibiotic-decontaminated rats; Critical Care Medicine; 1990 18(5)). Bacterial translocation from the gut into the peritoneal cavity and organs was analyzed. The mesenteric lymph nodes, liver, and spleen of mice, study group of 30, were removed using sterile instruments. The organs were then homogenized in 1 ml of sterile cooked meat broth and 50 μl of organ homogenate was spread on blood agar plates to detect aerobic bacteria and Eosin Methylene blue agar plates to detect specially for E. coli. These plates were then incubated at 37° C. for 2 days. […]

[3] = test system: C3b; assay: Complement activation product C3b in serum (ELISA), chronic zymosan peritonitis; type: in vivo, mouse; settings: 2 mg/kg
Method: as §3
Complement activation is a system of more than 30 proteins in the plasma and on cell surfaces. The activation takes place by three pathways, classical, lectin, and alternative. […]

[4] = test system: Proteus mirabilis (Gram-negative); assay: Bacterial translocation from the gut into organs: P. mirabilis; type: in vivo; settings: Withanone 2 mg/kg; positive/6 mice
Method: as §3, §4

[5] = test system: IL-1β; assay: Intracellular IL-1β estimation in LPS activated murine neutrophils (flow cytometry); type: cell-based; settings: 5 μg/ml, LPS 1 μg/ml, 3 h, ↑ upregulation
Method: as §1, §2

[6] = test system: TNF-α; assay: Cytometric Bead Array of peritoneal fluid, chronic zymosan peritonitis: TNF-α; type: in vivo, mouse; settings: 2 mg/kg, vs Zymosan control
Method: as §3, with “The test drugs were administered for 30 days after the induction of peritonitis. On 36th day the peritoneal cavity was lavaged with 1.5 ml saline, and after a 30-s gentle manual massage, 0.5 ml exudate was retrieved, centrifuged at 3000 g for 3 min, and frozen at 220° C. prior to cytokine and chemotactic-factor assessment.” left out
The Cytometric Bead Array (Mouse Inflammation kit) was used to study cytokines in peritoneal fluid. […] Briefly, a mixture of 6 capture bead populations (50 μl) with distinct fluorescence intensities (detected in FL3) coated with antibodies specific for the above cytokines was mixed with each sample/standard (50 μl). […] Following acquisition of data by two colour cytometric analysis, the sample results were analysed using CBA software (BD Biosciences). […] Individual cytokine concentration ratios were indicated by their fluorescent intensities and was determined by interpolation from the corresponding standard curve.

`CC1=C(C)C(=O)O[C@@H]([C@@H](C)[C@@]2(O)CC[C@H]3[C@@H]4[C@@H]5O[C@@H]5[C@@]5(O)CC=CC(=O)[C@]5(C)[C@H]4CC[C@@]32C)C1` [Withanone] was tested, and the “Percentage TNF-α inhibition compared to LPS control” value [1] was 53%, the “Bacterial translocation, Liver, E. coli” value [2] was 1/6 and the “Bacterial translocation, Mesenteric Lymph Nodes, E. coli” value [2] was 2/6. For the same molecule, the “Bacterial translocation, Spleen, E. coli” value [2] was 1/6, the “Inhibition of complement activation product C3b compared to the Zymosan control” value [3] was 44% and the “Bacterial translocation, Liver, p. mirabilis” value [4] was 0/6. The “Bacterial translocation, Mesenteric Lymph Nodes, p. mirabilis” value [4] was 0/6, the “Bacterial translocation, Spleen, p. mirabilis” value [4] was 0/6 and the “Percentage IL-1β inhibition compared to LPS control” value [5] was 32%. For the same molecule, the “Inhibition of TNF-α” value [6] was 58%.
